Test results: patent publication US9386767B2, “Derivatives of dillapiol and related monolignans and use thereof” (UNIVERSITY OF OTTAWA, priority 2011, dated 2016)
Several values for one entry are separate records, joined by “and”; a condition that tells them apart may be missing. Equal values may be shown once. Read-outs that look alike come from different tables or passages of the source.

How the values were obtained:
[1] = biological target: T1, CYP3A4 (BDGentest) (Homo sapiens, UniProt P08684); experiment: New CYP3A4 bioassay with dibenzylfluorescein (DBF) substrate (Foster et al. 2011); type: biochemical; conditions: for IC50: human microsomes; for % Activity relative to dillapiol = 1: new CYP3A4 bioassay, inhibition relative to dillapiol
T1 construct: purchased BDGentest
T1 sequence (P08684 whole entry): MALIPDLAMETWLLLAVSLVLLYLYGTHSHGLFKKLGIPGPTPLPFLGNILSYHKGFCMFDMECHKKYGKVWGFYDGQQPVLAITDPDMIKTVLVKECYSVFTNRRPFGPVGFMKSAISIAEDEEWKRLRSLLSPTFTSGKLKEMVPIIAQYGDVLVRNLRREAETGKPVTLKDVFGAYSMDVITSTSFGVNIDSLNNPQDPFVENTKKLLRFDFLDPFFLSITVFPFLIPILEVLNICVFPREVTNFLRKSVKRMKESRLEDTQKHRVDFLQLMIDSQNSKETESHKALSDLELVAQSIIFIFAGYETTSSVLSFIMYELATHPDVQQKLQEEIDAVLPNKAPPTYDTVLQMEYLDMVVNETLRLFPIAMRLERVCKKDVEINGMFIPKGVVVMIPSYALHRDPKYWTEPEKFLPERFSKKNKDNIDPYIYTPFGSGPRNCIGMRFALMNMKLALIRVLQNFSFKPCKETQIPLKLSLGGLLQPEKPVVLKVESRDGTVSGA
Procedure: (§1) In the second set of experiments, new CYP3A4 enzyme inhibition assays were conducted with a designed set of analogs and newer method described by Foster et al. (J. Agric. Food Chem, 2011, 59(9):5159-5163). This assay using the substrate dibenzylfluorescein (DBF) is considered more representative of CYP3A4 activity as compared to the benzyloxyresorufin assay previously used (Budzinski et al., 2000, Phytomedicine, 7(4):273-282).
(§2) Aliquots (10 μL) of stock solutions of the undiluted products were screened for their ability to inhibit CYP3A4 (BDGentest) metabolism of the non-fluorescent dibenzylfluorescein (DBF) substrates to the fluorescent metabolite using an in vitro fluorometric microtiter plate assay (CytoFluor Series 4000 multi-well plate reader). Briefly, assays were performed with 10 μL of product in clear-bottom, opaque-welled microtiter plates (96 well, Corning Costar). Control and control blank wells contained 5% ethanol, and test and test blank wells contained the product. All wells tested contained distilled water, β-nicotinamide adenine dinucleotide phosphate, reduced form (NADPH, Sigma Chemicals), and the enzyme substrate DBF (final concentration of 1 μM/well), for a total reaction volume of 200 μL. Control and test wells also contained live isozyme, within human microsomes, in phosphate buffer solution (PBS; 0.5 M, pH 7.4), and control blank and test blank wells contained denatured isoenzyme in PBS. Fluorescence was measured at 485 nm excitation and 530 nm emission, with a gain of 50.

[2] = biological target: T2, CYP3A4 (Homo sapiens, UniProt P08684); experiment: as above; type: biochemical; conditions: human, CYP3A4 (BDGentest) isozyme within human microsomes, pH 7.4, probe dibenzylfluorescein (DBF), 1 μM final, DBF substrate 1 μM, human microsomes
T2 construct: purchased BDGentest
T2 sequence (P08684 whole entry): as above
Procedure: as §1, §2

[3] = biological target: T3, human cytochrome CYP3A4 (Homo sapiens, UniProt P08684); experiment: CYP3A4 inhibition assay of dillapiol derivatives (earlier benzyloxyresorufin assay); type: biochemical; conditions: for Rel. Activity Dillapiol = 1.0: CYP3A4 inhibition relative to dillapiol
T3 sequence (P08684 whole entry): as above
Procedure: A suite of dillapiol derivatives were synthesized and assayed for their capacity to inhibit human cytochrome CYP3A4. For each molecule, experimental IC50 values for CYP3A4 inhibition were determined. These IC50 values together with the log of the octanol-water partition coefficient (logP) and molecular refractivity (MR) are shown in Table 1, and were used as parameters to model a quantitative structure-activity relationship (QSAR). The resulting equations were used to guide the design of further derivatives with enhanced CYP3A4 inhibition.
as §1

[4] = system: mosquito larvae; conditions: co-administration of dillapiol with alpha-terthienyl; increased toxicity in mosquito larvae; cited from earlier work
[5] = biological target: T3, human cytochrome CYP3A4; conditions: Budzinski et al., 2000; cited from earlier work
[6] = system: parasitemia; conditions: co-administration of dillapiol with genudin, mice; cited from earlier work
[7] = DBF substrate 1 μM, read-out: IC50 (converted)
[8] = Table 1, CYP3A4 inhibition, read-out: IC50

Compound | Rel. Activity Dillapiol = 1.0 ([3]; Table 1) | IC50 [3, 8] [µM] | also measured
COc1c(CCCO)cc2c(c1OC)OCO2 | – | – | IC50 [1, 7]: 16.6 µM; % Activity relative to dillapiol = 1 [1]: 0.57; IC50 [2]: 16 µM
COc1c(/C=C/CC(O)(c2ccccc2)c2ccccc2)cc2c(c1OC)OCO2 [Compound 1] | 100 and 114 | 3.6 | CYP3A4 inhibition (in words) [1]: increased inhibition of CYP3A4 compared to dillapiol; IC50 [1, 7]: 1.58 µM; % Activity relative to dillapiol = 1 [1]: 5.8; CYP3A4 inhibition compared with dillapiol (in words) ([3]; Table 1): at least four times lower than dillapiol
C=CCc1cc2c(c(OC)c1OC)OCO2 [dillapiol, 4,5 dimethoxy-6-(2-propenyl)-1,3-benzodioxole] | 1.0 | – | synergism factor [4]: 1.9; inhibition of human cytochrome P450 3A4 (in words) [5]: inhibits the human cytochrome P450 3A4 (CYP3A4) enzyme; IC50 ([1]; IC50, DBF substrate 1 μM): 9.45 µM; % Activity relative to dillapiol = 1 [1]: 1; IC50 [3]: 410 µM; increase of parasitemia clearance [6]: 29%
C=CCc1cc2c(cc1O)OCO2 [Compound 14] | 0.75 | 550 | –
C=CCc1cc2c(c(COC)c1OC)OCO2 [Compound 5] | 1.3 | 320 | –
C=CCc1cc2c(c(C=O)c1OC)OCO2 [Compound 8] | 0.66 | 620 | –
C=CCc1cc2c(c([S+]([O-])Cc3ccccc3)c1OC)OCO2 (stereo not shown) [Compound 27] | 6.4 | 64 | CYP3A4 inhibition compared with dillapiol (in words) ([3]; Table 1): at least four times lower than dillapiol
C=CCc1cc2c(c(COCC(=O)OCC)c1OC)OCO2 [Compound 13] | 4.2 | 98 | CYP3A4 inhibition compared with dillapiol (in words) ([3]; Table 1): at least four times lower than dillapiol
C=CCc1cc2c(c(SCc3ccccc3)c1O)OCO2 [Compound 24] | 1.6 | – | –
C=CCc1cc2c(c(Br)c1O)OCO2 [Compound 17] | 0.68 | 600 | –
C=CCc1cc2c(c(O)c1OC)OCO2 [Compound 10] | 0.26 | – | IC50 [3]: 1600 µM
C=CCc1cc2c(c(SC)c1OC)OCO2 [Compound 18] | 1.3 | – | IC50 [3]: 320 µM
COc1c(CCCOC(=O)c2ccccc2)cc2c(c1OC)OCO2 [Compound 12] | 29 | 14 | CYP3A4 inhibition (in words) [1]: increased inhibition of CYP3A4 compared to dillapiol; IC50 [1, 7]: 2.1 µM and 2.11 µM; % Activity relative to dillapiol = 1 [1]: 4.4; CYP3A4 inhibition compared with dillapiol (in words) ([3]; Table 1): at least four times lower than dillapiol
C=CCc1cc2c(c(C(O)CCCCCCCC)c1OC)OCO2 (single isomer, unassigned) [Compound 7] | 2.2 | 190 | –
C=CCc1cc2c(c(Sc3ccccc3)c1OC)OCO2 [Compound 16] | 0.84 | 480 | –
C=CCc1cc2c(c(CO)c1OC)OCO2 [Compound 4] | 0.45 | 900 | –
C=CCc1cc2c(c(CC=C)c1O)OCO2 [Compound 11] | 1.9 | 210 | –
C=CCc1cc2c(c(SCc3ccccc3)c1OC)OCO2 [Compound 25] | 9 and 9.3 | 44 | CYP3A4 inhibition compared with dillapiol (in words) ([3]; Table 1): at least four times lower than dillapiol
